From PubChem BioAssay AID248 (DTP/NCI, 2004)
Inconclusive results and toxic doses are left out. Rule as the data show it: active = T/C of 150% or more; inactive = T/C below 125%.

System: L1210 leukemia ip in BDF1 mice, survival T/C
Experiment: NCI In Vivo Anticancer Drug Screen. Data for tumor model L1210 Leukemia (intraperitoneal) in B6D2F1 (BDF1) mice
Conditions: endpoint: mean survival time, higher = longer survival
Method in brief: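 Survival endpoint. Drug-treated group vs vehicle group, expressed as T divided by C. Tumor passaged by transplantation.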

[1] = dose: 100.0 mg/kg/injection, schedule: Q01DX001 (ip), vehicle: saline
[2] = dose: 100.0 mg/kg/injection, schedule: Q04DX003 (ip), vehicle: saline with Tween-80
[3] = dose: 200.0 mg/kg/injection, schedule: Q01DX001 (ip), vehicle: saline
[4] = dose: 200.0 mg/kg/injection, schedule: Q04DX003 (ip), vehicle: saline with Tween-80
[5] = dose: 100.0 mg/kg/injection, schedule: Q01DX009 (ip), vehicle: Klucel (hydroxypropylcellulose) (HPC)
[6] = dose: 100.0 mg/kg/injection, schedule: Q04DX002 (ip), vehicle: Klucel (hydroxypropylcellulose) (HPC)
[7] = dose: 200.0 mg/kg/injection, schedule: Q04DX002 (ip), vehicle: Klucel (hydroxypropylcellulose) (HPC)
[8] = dose: 400.0 mg/kg/injection, schedule: Q04DX002 (ip), vehicle: Klucel (hydroxypropylcellulose) (HPC)
[9] = dose: 100.0 mg/kg/injection, schedule: Q04DX003 (ip), vehicle: Klucel (hydroxypropylcellulose) (HPC)
[10] = dose: 200.0 mg/kg/injection, schedule: Q04DX003 (ip), vehicle: Klucel (hydroxypropylcellulose) (HPC)
[11] = dose: 400.0 mg/kg/injection, schedule: Q01DX001 (ip), vehicle: saline

Measured: T/C

C=CN1CCCC1=O
inactive: dose: 100.0 mg/kg/injection, schedule: Q01DX001 (ip), vehicle: acetone 95 % of control | [1] 97 % of control | dose: 100.0 mg/kg/injection, schedule: Q04DX002 (ip), vehicle: saline 103 % of control | [2] 100 % of control | dose: 200.0 mg/kg/injection, schedule: Q01DX001 (ip), vehicle: acetone 95 % of control | [3] 92 % of control | dose: 200.0 mg/kg/injection, schedule: Q04DX002 (ip), vehicle: saline 103 % of control | [4] 92 % of control | dose: 400.0 mg/kg/injection, schedule: Q01DX001 (ip), vehicle: acetone 93 % of control | dose: 400.0 mg/kg/injection, schedule: Q04DX002 (ip), vehicle: saline 103 % of control | dose: 400.0 mg/kg/injection, schedule: Q04DX003 (ip), vehicle: saline with Tween-80 92 % of control | dose: 600.0 mg/kg/injection, schedule: Q01DX001 (ip), vehicle: saline 100 % of control | dose: 800.0 mg/kg/injection, schedule: Q01DX001 (ip), vehicle: saline 100 % of control | dose: 1000.0 mg/kg/injection, schedule: Q01DX001 (ip), vehicle: saline 106 % of control | dose: 1200.0 mg/kg/injection, schedule: Q01DX001 (ip), vehicle: saline 108 % of control | dose: 1.9 grams/kg/injection, schedule: Q01DX001 (iv), vehicle: saline 98 % of control | dose: 1.9 grams/kg/injection, schedule: Q01DX005 (iv), vehicle: saline 97 % of control | dose: 1.9 grams/kg/injection, schedule: Q04DX003 (iv), vehicle: saline 97 % of control | dose: 3.8 grams/kg/injection, schedule: Q01DX001 (ip), vehicle: saline 90 % of control | dose: 3.8 grams/kg/injection, schedule: Q01DX001 (iv), vehicle: saline 97 % of control | dose: 3.8 grams/kg/injection, schedule: Q01DX005 (ip), vehicle: saline 100 % of control | dose: 3.8 grams/kg/injection, schedule: Q01DX005 (iv), vehicle: saline 96 % of control | dose: 3.8 grams/kg/injection, schedule: Q01DX009 (ip), vehicle: saline 91 % of control | dose: 3.8 grams/kg/injection, schedule: Q03HX008 (ip), vehicle: saline 97 % of control | dose: 3.8 grams/kg/injection, schedule: Q03HX016 (ip), vehicle: saline 98 % of control | dose: 3.8 grams/kg/injection, schedule: Q03HX024 (ip), vehicle: saline 101 % of control | dose: 3.8 grams/kg/injection, schedule: Q04DX003 (ip), vehicle: saline 101 % of control | dose: 3.8 grams/kg/injection, schedule: Q04DX003 (iv), vehicle: saline 94 % of control | dose: 3.8 grams/kg/injection, schedule: Q08DX002 (ip), vehicle: saline 97 % of control | dose: 7.5 grams/kg/injection, schedule: Q01DX001 (ip), vehicle: saline 93 % of control | dose: 7.5 grams/kg/injection, schedule: Q01DX001 (iv), vehicle: saline 97 % of control | dose: 7.5 grams/kg/injection, schedule: Q01DX005 (ip), vehicle: saline 103 % of control | dose: 7.5 grams/kg/injection, schedule: Q01DX005 (iv), vehicle: saline 93 % of control | dose: 7.5 grams/kg/injection, schedule: Q01DX009 (ip), vehicle: saline 97 % of control | dose: 7.5 grams/kg/injection, schedule: Q03HX008 (ip), vehicle: saline 96 % of control | dose: 7.5 grams/kg/injection, schedule: Q03HX016 (ip), vehicle: saline 95 % of control | dose: 7.5 grams/kg/injection, schedule: Q03HX024 (ip), vehicle: saline 103 % of control | dose: 7.5 grams/kg/injection, schedule: Q04DX003 (ip), vehicle: saline 98 % of control | dose: 7.5 grams/kg/injection, schedule: Q04DX003 (iv), vehicle: saline 92 % of control | dose: 7.5 grams/kg/injection, schedule: Q08DX002 (ip), vehicle: saline 98 % of control | dose: 15.0 grams/kg/injection, schedule: Q01DX001 (ip), vehicle: saline 88 % of control | dose: 15.0 grams/kg/injection, schedule: Q01DX005 (ip), vehicle: saline 102 % of control | dose: 15.0 grams/kg/injection, schedule: Q01DX009 (ip), vehicle: saline 96 % of control | dose: 15.0 grams/kg/injection, schedule: Q04DX003 (ip), vehicle: saline 95 % of control | dose: 15.0 grams/kg/injection, schedule: Q08DX002 (ip), vehicle: saline 94 % of control

Nc1ccc(C(=O)OCCCN2CCCCC2)cc1
inactive: dose: 12.5 mg/kg/injection, schedule: Q01DX009 (ip), vehicle: saline 101 % of control | dose: 25.0 mg/kg/injection, schedule: Q01DX009 (ip), vehicle: saline 97 % of control | dose: 50.0 mg/kg/injection, schedule: Q01DX009 (ip), vehicle: saline 101 % of control

CCCCC(C(C)=O)C(C)=O
inactive: [5] 100 % of control | [6] 86 % of control | dose: 200.0 mg/kg/injection, schedule: Q01DX009 (ip), vehicle: Klucel (hydroxypropylcellulose) (HPC) 100 % of control | [7] 93 % of control | dose: 400.0 mg/kg/injection, schedule: Q01DX009 (ip), vehicle: Klucel (hydroxypropylcellulose) (HPC) 89 % of control | [8] 86 % of control

CC1=CC(=O)N(CCl)C1=O
inactive: [2] 102 % of control | [4] 94 % of control

CC(NC(C)c1ccccc1)c1ccccc1 (stereo not given)
inactive: dose: 50.0 mg/kg/injection, schedule: Q01DX009 (ip), vehicle: Klucel (hydroxypropylcellulose) (HPC) 102 % of control | [5] 106 % of control | [9] 104 % of control | [10] 100 % of control

CC12CCC(CC(=O)O1)C2(C)C (stereo not given)
inactive: dose: 75.0 mg/kg/injection, schedule: Q01DX001 (ip), vehicle: saline 114 % of control

CCCCCCNS(=O)(=O)c1ccc([N+](=O)[O-])cc1
inactive: [9] 100 % of control | [10] 100 % of control | dose: 400.0 mg/kg/injection, schedule: Q04DX003 (ip), vehicle: Klucel (hydroxypropylcellulose) (HPC) 93 % of control

CN(C)C(=S)NNC(=O)c1ccc(Cl)cc1
inactive: dose: 6.25 mg/kg/injection, schedule: Q01DX001 (ip), vehicle: saline with Tween-80 98 % of control | dose: 12.5 mg/kg/injection, schedule: Q01DX001 (ip), vehicle: saline with Tween-80 101 % of control | dose: 25.0 mg/kg/injection, schedule: Q01DX001 (ip), vehicle: saline with Tween-80 104 % of control

N#Cc1c(SCC(=O)O)nsc1SCC(=O)O
inactive: dose: 100.0 mg/kg/injection, schedule: Q04DX002 (ip), vehicle: gum acacia 97 % of control | dose: 200.0 mg/kg/injection, schedule: Q04DX002 (ip), vehicle: gum acacia 94 % of control | dose: 400.0 mg/kg/injection, schedule: Q04DX002 (ip), vehicle: gum acacia 100 % of control

C#CCN
inactive: [1] 103 % of control | dose: 100.0 mg/kg/injection, schedule: Q01DX009 (ip), vehicle: saline 94 % of control | [3] 102 % of control | dose: 200.0 mg/kg/injection, schedule: Q01DX009 (ip), vehicle: saline 96 % of control | [11] 102 % of control | dose: 400.0 mg/kg/injection, schedule: Q01DX009 (ip), vehicle: saline 93 % of control

O=[N+]([O-])c1ccc(-c2cc3ccccc3[n+]([O-])c2)cc1
inactive: [1] 98 % of control | [3] 101 % of control | [11] 101 % of control

Cc1cccc(C2=N/C(=C\c3ccccc3)C(=O)O2)c1
inactive: dose: 100.0 mg/kg/injection, schedule: Q04DX002 (ip), vehicle: saline with Tween-80 95 % of control | dose: 200.0 mg/kg/injection, schedule: Q04DX002 (ip), vehicle: saline with Tween-80 89 % of control | dose: 400.0 mg/kg/injection, schedule: Q04DX002 (ip), vehicle: saline with Tween-80 89 % of control

c1ccc(N=NC(c2ccccc2)c2ccccc2)cc1
inactive: dose: 50.0 mg/kg/injection, schedule: Q04DX003 (ip), vehicle: saline 106 % of control | dose: 100.0 mg/kg/injection, schedule: Q04DX003 (ip), vehicle: saline 95 % of control | dose: 200.0 mg/kg/injection, schedule: Q04DX003 (ip), vehicle: saline 106 % of control

c1ccc(-c2ccc(-c3ccccc3)o2)cc1
inactive: [6] 106 % of control | [7] 95 % of control | [8] 106 % of control

O=C(O)/C=C/Sc1ccccc1
inactive: dose: 25.0 mg/kg/injection, schedule: Q04DX003 (ip), vehicle: Klucel (hydroxypropylcellulose) (HPC) 104 % of control | dose: 50.0 mg/kg/injection, schedule: Q04DX003 (ip), vehicle: Klucel (hydroxypropylcellulose) (HPC) 102 % of control
